Measured values from PubChem BioAssay AID256 (DTP/NCI, 2004).
Where “and” joins values, the source holds several entries; their conditions need not be identical. Equal values may be shown once. Inconclusive results and toxic doses are left out. Rule for the calls: active = survival T/C of 150% or more; inactive = T/C below 125% in these data.

Test system: CD2F1 mice, L1210 leukemia ip, survival T/C
Assay: NCI In Vivo Anticancer Drug Screen. Data for tumor model L1210 Leukemia (intraperitoneal) in CD2F1 (CDF1) mice
Settings: higher = longer survival
Outline: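 Activity against a transplanted murine tumor was judged by comparing the compound group with a vehicle group. The outcome in the treated animals was divided by that in the controls.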

[1] = endpoint: mean survival time, dose: 37.5 mg/kg/injection, schedule: Q01DX009 (ip), vehicle: Klucel (hydroxypropylcellulose) (HPC)
[2] = endpoint: mean survival time, dose: 150.0 mg/kg/injection, schedule: Q01DX009 (ip), vehicle: Klucel (hydroxypropylcellulose) (HPC)
[3] = endpoint: mean survival time, dose: 100.0 mg/kg/injection, schedule: Q01DX009 (ip), vehicle: saline with Tween-80
[4] = endpoint: mean survival time, dose: 200.0 mg/kg/injection, schedule: Q01DX009 (ip), vehicle: saline with Tween-80
[5] = endpoint: mean survival time, dose: 400.0 mg/kg/injection, schedule: Q01DX009 (ip), vehicle: saline with Tween-80
[6] = endpoint: mean survival time, dose: 100.0 mg/kg/injection, schedule: Q04DX003 (ip), vehicle: saline with Tween-80
[7] = endpoint: mean survival time, dose: 200.0 mg/kg/injection, schedule: Q04DX003 (ip), vehicle: saline with Tween-80
[8] = endpoint: mean survival time, dose: 400.0 mg/kg/injection, schedule: Q04DX003 (ip), vehicle: saline with Tween-80
[9] = endpoint: mean survival time, dose: 100.0 mg/kg/injection, schedule: Q01DX001 (ip), vehicle: saline with Tween-80
[10] = endpoint: mean survival time, dose: 200.0 mg/kg/injection, schedule: Q01DX001 (ip), vehicle: saline with Tween-80
[11] = endpoint: mean survival time, dose: 100.0 mg/kg/injection, schedule: Q04DX003 (ip), vehicle: saline
[12] = endpoint: mean survival time, dose: 200.0 mg/kg/injection, schedule: Q04DX003 (ip), vehicle: saline
[13] = endpoint: mean survival time, dose: 400.0 mg/kg/injection, schedule: Q04DX003 (ip), vehicle: saline
[14] = endpoint: mean survival time, dose: 400.0 mg/kg/injection, schedule: Q01DX001 (ip), vehicle: saline with Tween-80

Measured: T/C

[Au].[NH-]CC[NH-].[NH-]CC[NH-]
inactive: endpoint: mean survival time, dose: 6.25 mg/kg/injection, schedule: Q01DX001 (ip), vehicle: water 89 % of control | endpoint: mean survival time, dose: 6.25 mg/kg/injection, schedule: Q04DX003 (ip), vehicle: water 98 % of control | endpoint: mean survival time, dose: 12.5 mg/kg/injection, schedule: Q01DX001 (ip), vehicle: water 94 % of control | endpoint: mean survival time, dose: 12.5 mg/kg/injection, schedule: Q04DX003 (ip), vehicle: water 89 % of control | endpoint: mean survival time, dose: 25.0 mg/kg/injection, schedule: Q01DX001 (ip), vehicle: water 101 % of control

CN(C)N=Nc1ccc(C#N)cc1C(N)=O
inactive: endpoint: mean survival time, dose: 18.8 mg/kg/injection, schedule: Q01DX009 (ip), vehicle: Klucel (hydroxypropylcellulose) (HPC) 106 % of control | [1] 119 % of control | [2] 101 % of control

CN(C)N=Nc1ccccc1C(=O)NCC#N
inactive: endpoint: mean survival time, dose: 18.75 mg/kg/injection, schedule: Q01DX009 (ip), vehicle: Klucel (hydroxypropylcellulose) (HPC) 100 % of control and 103 % of control | [1] 106 % of control and 107 % of control | endpoint: mean survival time, dose: 75.0 mg/kg/injection, schedule: Q01DX009 (ip), vehicle: Klucel (hydroxypropylcellulose) (HPC) 112 % of control | [2] 91 % of control

Clc1ccc2ccc(Cl)cc2c1
inactive: [3] 94 % of control | [4] 96 % of control | [5] 105 % of control

CCOC(=O)C(C(C)=O)C(c1ccc(OC)cc1)C(C(C)=O)C(=O)OCC (configuration not stated)
inactive: [3] 94 % of control | [6] 100 % of control | [4] 97 % of control | [7] 99 % of control | [5] 92 % of control | [8] 106 % of control

CC(C)(C)C1(C)CC1(Br)Br (configuration not stated)
inactive: [6] 105 % of control | [7] 96 % of control

CCC12C=CCN3CCC4(c5cc(C6c7[nH]c8ccccc8c7CCN7CCCCC67)c(OC)cc5N(C)C4C(O)(C(=O)OC)C1OC(C)=O)C32 (configuration not stated)
inactive: endpoint: mean survival time, dose: 0.06 mg/kg/injection, schedule: Q01DX009 (ip), vehicle: other 93 % of control | endpoint: mean survival time, dose: 0.13 mg/kg/injection, schedule: Q01DX009 (ip), vehicle: other 93 % of control | endpoint: mean survival time, dose: 0.25 mg/kg/injection, schedule: Q01DX009 (ip), vehicle: other 92 % of control | endpoint: mean survival time, dose: 0.5 mg/kg/injection, schedule: Q01DX009 (ip), vehicle: other 95 % of control | endpoint: mean survival time, dose: 1.0 mg/kg/injection, schedule: Q01DX009 (ip), vehicle: other 90 % of control | endpoint: mean survival time, dose: 2.0 mg/kg/injection, schedule: Q01DX009 (ip), vehicle: other 93 % of control | endpoint: mean survival time, dose: 4.0 mg/kg/injection, schedule: Q01DX009 (ip), vehicle: other 93 % of control

Cc1ccccc1SCCC(=O)O
inactive: endpoint: mean survival time, dose: 12.5 mg/kg/injection, schedule: Q01DX009 (ip), vehicle: saline with Tween-80 101 % of control | endpoint: mean survival time, dose: 25.0 mg/kg/injection, schedule: Q01DX009 (ip), vehicle: saline with Tween-80 102 % of control | endpoint: mean survival time, dose: 50.0 mg/kg/injection, schedule: Q01DX009 (ip), vehicle: saline with Tween-80 101 % of control | [3] 97 % of control

c1cc2c(c(N3CCNCC3)c1)CCCC2
inactive: [9] 110 % of control | [10] 95 % of control

Cc1ccc(OCCOc2ccc([N+](=O)[O-])cc2)cc1
inactive: endpoint: mean survival time, dose: 200.0 mg/kg/injection, schedule: Q04DX003 (ip), vehicle: other 92 % of control | endpoint: mean survival time, dose: 400.0 mg/kg/injection, schedule: Q04DX003 (ip), vehicle: other 90 % of control

COc1ccc(/C=N\N=C\c2ccc(OC)c(OC)c2)cc1OC
inactive: [11] 105 % of control | [12] 100 % of control | [13] 94 % of control

O=C(O)C(O)C(O)C(O)CO (configuration not stated)
inactive: [11] 95 % of control | [12] 105 % of control | [13] 97 % of control

NC(=O)NN=C1CCC1
inactive: endpoint: mean survival time, dose: 75.0 mg/kg/injection, schedule: Q01DX001 (ip), vehicle: saline 98 % of control

Cc1ccc(NNC(N)=O)cc1
inactive: endpoint: mean survival time, dose: 25.0 mg/kg/injection, schedule: Q01DX001 (ip), vehicle: Klucel (hydroxypropylcellulose) (HPC) 104 % of control | endpoint: mean survival time, dose: 50.0 mg/kg/injection, schedule: Q01DX001 (ip), vehicle: Klucel (hydroxypropylcellulose) (HPC) 93 % of control | endpoint: mean survival time, dose: 100.0 mg/kg/injection, schedule: Q01DX001 (ip), vehicle: Klucel (hydroxypropylcellulose) (HPC) 89 % of control

Cc1c(Cl)c(Cl)c(Cl)c(Cl)c1Cl
inactive: [3] 93 % of control | [4] 93 % of control | [5] 92 % of control

CCC(C(=O)O)c1ccc(-c2ccccc2)cc1 (configuration not stated)
inactive: [9] 91 % of control | [10] 93 % of control | [14] 92 % of control

COc1ccc(NCC(=O)O)c([N+](=O)[O-])c1
inactive: [6] 91 % of control | [7] 101 % of control

COC(=O)c1ccc(C(=O)OC)cc1
inactive: [3] 95 % of control | [6] 93 % of control | [4] 98 % of control | [7] 104 % of control | [5] 95 % of control | [8] 101 % of control

O=C(O)C(=O)O.[NH-]C(c1ccccc1)C([NH-])c1ccccc1.[Pt+2] (configuration not stated)
inactive: endpoint: mean survival time, dose: 6.25 mg/kg/injection, schedule: Q04DX003 (ip), vehicle: saline with Tween-80 118 % of control | endpoint: mean survival time, dose: 12.5 mg/kg/injection, schedule: Q04DX003 (ip), vehicle: saline with Tween-80 124 % of control

CCC1(CC)C=CC(Br)CC1(CC)CC (configuration not stated)
inactive: [3] 101 % of control | [4] 113 % of control | [5] 98 % of control

CCOC(=O)CC(=O)c1c(C)cc(C)cc1C
inactive: [3] 89 % of control | [4] 96 % of control | [5] 107 % of control

COc1cc2c(cc1O)NC(OC)C1CC(O)CN1C2=O (configuration not stated)
inactive: endpoint: median survival time, dose: 0.02 mg/kg/injection, schedule: Q01DX005 (ip), vehicle: DMSO 101 % of control | endpoint: median survival time, dose: 0.4 mg/kg/injection, schedule: Q01DX005 (ip), vehicle: DMSO 102 % of control | endpoint: median survival time, dose: 0.8 mg/kg/injection, schedule: Q01DX005 (ip), vehicle: DMSO 100 % of control | endpoint: median survival time, dose: 1.6 mg/kg/injection, schedule: Q01DX005 (ip), vehicle: DMSO 102 % of control | endpoint: median survival time, dose: 3.2 mg/kg/injection, schedule: Q01DX005 (ip), vehicle: DMSO 111 % of control | endpoint: median survival time, dose: 6.4 mg/kg/injection, schedule: Q01DX005 (ip), vehicle: DMSO 115 % of control

NNC(=O)CCCCCCCCCCCCCCO
inactive: [10] 87 % of control | [14] 90 % of control

OC(CI)C(O)C(O)C(O)CI (configuration not stated)
inactive: endpoint: mean survival time, dose: 25.0 mg/kg/injection, schedule: Q01DX009 (oral), vehicle: other 106 % of control | endpoint: mean survival time, dose: 50.0 mg/kg/injection, schedule: Q01DX009 (oral), vehicle: other 106 % of control | endpoint: mean survival time, dose: 100.0 mg/kg/injection, schedule: Q01DX009 (oral), vehicle: other 95 % of control | endpoint: mean survival time, dose: 200.0 mg/kg/injection, schedule: Q01DX009 (oral), vehicle: other 107 % of control | endpoint: mean survival time, dose: 400.0 mg/kg/injection, schedule: Q01DX009 (oral), vehicle: other 107 % of control | endpoint: mean survival time, dose: 800.0 mg/kg/injection, schedule: Q01DX009 (oral), vehicle: other 124 % of control

C/C=C(\C)C(=O)O[C@@H]1c2cc3c(cc2-c2c(cc(OC)c(OC)c2OC)[C@@H]2C(=O)OC[C@@H]12)OCO3
inactive: endpoint: mean survival time, dose: 1.25 mg/kg/injection, schedule: Q01DX009 (ip), vehicle: Klucel (hydroxypropylcellulose) (HPC) 112 % of control | endpoint: mean survival time, dose: 2.5 mg/kg/injection, schedule: Q01DX009 (ip), vehicle: Klucel (hydroxypropylcellulose) (HPC) 106 % of control | endpoint: mean survival time, dose: 5.0 mg/kg/injection, schedule: Q01DX009 (ip), vehicle: Klucel (hydroxypropylcellulose) (HPC) 106 % of control | endpoint: mean survival time, dose: 10.0 mg/kg/injection, schedule: Q01DX009 (ip), vehicle: Klucel (hydroxypropylcellulose) (HPC) 95 % of control

C=C(NC(C)=O)C(=O)O
inactive: [9] 96 % of control | [3] 103 % of control | [10] 97 % of control | [4] 89 % of control | [14] 97 % of control

S=c1[nH]ccn1-c1cccc(Br)c1
inactive: [3] 112 % of control | [4] 103 % of control | [5] 112 % of control

CCc1ccccc1NC(=O)/C=C/c1ccccc1
inactive: endpoint: mean survival time, dose: 100.0 mg/kg/injection, schedule: Q04DX002 (ip), vehicle: saline with Tween-80 86 % of control | endpoint: mean survival time, dose: 200.0 mg/kg/injection, schedule: Q04DX002 (ip), vehicle: saline with Tween-80 96 % of control | endpoint: mean survival time, dose: 400.0 mg/kg/injection, schedule: Q04DX002 (ip), vehicle: saline with Tween-80 93 % of control

COc1ccc(C(OC(=O)Oc2ccccc2)c2ccccc2)cc1 (configuration not stated)
inactive: endpoint: mean survival time, dose: 100.0 mg/kg/injection, schedule: Q04DX002 (ip), vehicle: other 93 % of control | endpoint: mean survival time, dose: 200.0 mg/kg/injection, schedule: Q04DX002 (ip), vehicle: other 96 % of control | endpoint: mean survival time, dose: 400.0 mg/kg/injection, schedule: Q04DX002 (ip), vehicle: other 96 % of control
